# According to patent publication US20190001106A1, “THERAPEUTIC DELIVERY DEVICE” (priority 2013, published 2019):
# Test: preservation of doxorubicin efficacy in the implanted construct
# Format: in vivo
# Conditions: in STID-Dox-PLGA85/15 construct, 3 weeks inside an animal body about 37C
smiles,measurement,value
"COc1cccc2c1C(=O)c1c(O)c3c(c(O)c1C2=O)C[C@@](O)(C(=O)CO)C[C@@H]3O[C@H]1C[C@H](N)[C@H](O)[C@H](C)O1 [doxorubicin, Doxorubicin]",efficacy of doxorubicin after residence in the construct,efficacy is still preserved
